Experimental data reported in US9193673B2, “Derivatives of mesalazine, process of their preparation and their use in the treatment of intestinal inflammatory diseases” (SOFAR SPA, priority 2010, dated 2015).
“And” between values parts separate entries of the source, which are not always exact repeats. Equal values may be shown once. “Also recorded” adds a separate entry of the source.

Columns and labels:
[1] = Stability of the compound (IV) in storage at 25° C. (60% RH) and at 40° C. (75% RH); format: physicochemical; conditions: for Titre % Mean / Titre %: 3 months; for Titre % Mean: mean of samples; for Titre %: single samples
Experimental: The object of such study is the evaluation of the stability of the compound (IV) kept at a temperature equivalent to 25° C. (60% RH) and at 40° C. (75% RH). In particular, such study aims at evaluating the titre of the compound (IV) in the stability test at 25° C. (60% RH) at 3, 6, 9, 12, 18, 24, 36, 48, 60 months and in the stability test accelerated at 40° C. (75% RH) at 3, 6, 9, 12 months.
The compound (IV) is divided into 10 Eppendorfs numbered from 1 to 10, containing about 50 mg of product and stored in a cellar at 25° C. 60% RH.
Other 4 Eppendorfs numbered from 11 to 14, containing about 50 mg of product are introduced into an oven at a temperature equivalent to 40° C. 75% RH.

[2] = Stability in simulated gastric and simulated intestinal fluids; format: physicochemical
Experimental: Such study is conducted with the aim of evaluating the stability of the compound (IV) at […] in absence of enzymes of the intestinal bacterial flora.
(§1) The stability of the compound (IV) is compared to that of known reference standards.

[3] = Stability in human plasma (hydrolysis by plasma esterases); format: in vitro ADME
Experimental: Such study is conducted with the aim of evaluating possible hydrolysis of the compound (IV) by the plasma esterases. The percentage of hydrolysis of the compound (IV) is compared to that of known reference standards.

[4] = Permeability on the Caco2 cellular line; format: in vitro ADME; conditions: human, Caco-2, Caco2
Experimental: (§2) Such study is conducted with the aim of evaluating the capacity of the molecule to permeate the intestinal epithelium and be absorbed thereby evaluating the Papp (apparent permeability coefficient). The Papp of the compound (IV) is compared to that of the known reference standards.

Caco2 cellular line = experiment: Permeability on the Caco2 cellular line; format: in vitro ADME
Experimental: as §2

[5] = Hydrolysis in rat intestine preserved in different conditions; format: in vitro ADME
Experimental: Such study is conducted with the aim of surveying the stability of the compound (IV) in rat intestine homogenate preserved in different conditions: frozen at […] and at −80° C.
as §1

DSS-induced colitis = DSS-induced colitis model; format: in vivo; conditions: DSS 3% C57BL/6 mice
Source text: Experimental colitis models, such as the dextran sodium sulphate (DSS) model, are routinely available in our laboratory (1, 2). […] DSS-induced inflammation of the colon originates in the distal colon, progressing to involve the whole colon and in severe cases the caecum. In addition, the inflammation is confined to the mucosa and is generally not transmural. Furthermore, DSS-induced inflammation is not dependent on the presence of any specific intestinal bacterial flora.
Colon inflammation has been induced in C57BL/6 mice by the administration of DSS in the drinking water at concentrations of 3%, for 5 days.
Different parameters have been measured to test the efficacy of the selected compounds which are: • Clinical evaluation: daily recording weight and clinical activity (anal bleeding, presence of diarrhoea). This parameter has been quantified as percentage of body weight and DAI (Disease Activity Index) relating to anal bleeding and presence of diarrhoea. The lower the DAI is, the lower the anal bleeding is, thus better the therapeutic effect is. • Endoscopic evaluation: mice underwent endoscopy at the end of the treatment. This step is very important as most of the drugs used in human inflammatory bowel disease aim to achieve mucosal healing. • Histological colitis assessment: mice have been sacrificed at the end of the treatment, colons have been removed and histopathological analysis has been performed to assess the extent of tissue damage and recruitment of immune cells.
The therapeutic effect has been evaluated with different experimental procedures (a)-c)) representing either the active phase (a)) or the remission phase (b)-c)) of an intestinal inflammatory disease at different doses: • a) treatment of acute phase at 200 mg/kg/day • b) treatment of remission phase at 50 mg/kg/day • c) treatment of remission phase at 100 mg/kg/day […]

## CCCC(=O)Oc1ccc(N)cc1C(=O)O.Cl [Compound (IV), 5-amino-2-(butyryloxy)benzoic acid]
[1]; 25° C. 60% RH and 40° C. 75% RH
  Stability in storage: does not seem to be subjected to considerable modifications; also recorded: stable in storage
[1]; 25° C. 60% RH
  Titre % Mean: 98.1%
  Titre %: 98.2% and 98.1%
[1]; 40° C. 75% RH
  Titre % Mean: 101.2%
  Titre %: 99.8% and 102.6%
[1]; time t=0
  Titre: 99.3%
[2]; SGF, 30 min incubation
  % Residue: 97.3 ± 1.1%
[2]; SGF, 60 min incubation
  % Residue: 99.9 ± 0.9%
[2]; SIF, 30 min incubation
  % Residue: 97.4 ± 4.1%
[2]; SIF, 60 min incubation
  % Residue: 103.2 ± 3.5%
[2]; both media
  Stability in SIF and SGF: stable in both media
[3]; Human plasma, 60 min
  % Residue at 60 min: 32.7 ± 2.6%
[3]; human plasma
  Hydrolysis in plasma: high hydrolysis percentage
[3]; human plasma, after 1 hour of incubation
  % hydrolysed: 67.3%
[4]; Apical (pH 6.5) → Basolateral (pH 7.4), read-out: Papp A→B (nm/sec) Mean ± SD
  Papp A→B: 0.59 ± 0.12 ×10⁻⁶ cm/s
[4]; B→A, read-out: Papp B→A (nm/sec) Mean ± SD
  Papp B→A: 0.24 ± 0.03 ×10⁻⁶ cm/s
Caco2 cellular line; A→B, Caco2
  A→B Mean mass balance %: 69%
Caco2 cellular line; B→A, Caco2
  B→A Mean mass balance %: 99%
Caco2 cellular line; Caco2
  BA/AB ratio: 0.41
  Permeability: poor permeability
Caco2 cellular line; Caco2, listed as compound (IV)
  BA/AB ratio: < 1
Caco2 cellular line; from BA/AB ratio, Caco2
  Substrate of P-gp (glycoprotein P): does not seem to be a substrate of P-gp
Caco2 cellular line; through the basolateral membrane of the Caco2 cell line
  Permeability class: low
[5]; fresh homogenate
  Metabolism in fresh rat intestine homogenate: metabolised quickly
[5]; fresh homogenate, 15 min
  Stability in rat intestine (residue %): 0.030 ± 0.015%
[5]; fresh homogenate, 30 min
  Stability in rat intestine (residue %): 0.031 ± 0.004%
[5]; fresh homogenate, 60 min
  Stability in rat intestine (residue %): 0.047 ± 0.021%
[5]; homogenate 4° C., 15 min
  Stability in rat intestine (residue %): 0.046 ± 0.004%
[5]; homogenate 4° C., 30 min
  Stability in rat intestine (residue %): 0.046 ± 0.022%
[5]; homogenate 4° C., 60 min
  Stability in rat intestine (residue %): 0.064 ± 0.008%
[5]; homogenate −80° C., 15 min
  Stability in rat intestine (residue %): 0.024 ± 0.007%
[5]; homogenate −80° C., 30 min
  Stability in rat intestine (residue %): 0.034 ± 0.001%
[5]; homogenate −80° C., 60 min
  Stability in rat intestine (residue %): 0.470 ± 0.012%
[5]; intestine −80° C., 15 min
  Stability in rat intestine (residue %): 0.145 ± 0.029%
[5]; intestine −80° C., 30 min
  Stability in rat intestine (residue %): 0.091 ± 0.038%
[5]; intestine −80° C., 60 min
  Stability in rat intestine (residue %): 0.098 ± 0.002%
DSS-induced colitis; a) acute (active) phase, 200 mg/kg/day orally
  Therapeutic efficiency (DAI, endoscopic and histological scores): comparable therapeutic efficiency
DSS-induced colitis; b) remission phase, 50 mg/kg/day orally
  Therapeutic activity (DAI, endoscopic and histological scores) vs 5-ASA, butyric acid, and their combined administration: better therapeutic activity
DSS-induced colitis; c) remission phase, 100 mg/kg/day orally
  Therapeutic activity (DAI, endoscopic and histological scores) vs 5-ASA, butyric acid, and their combined administration: better therapeutic activity
